# System: Key Grass and Sedge Weeds as well as Grass Crops
# Test: Post-emergent Test II herbicidal activity (Table 6)
# Assay type: in vivo
# Conditions: post-emergence, 336 h, CYPES: yellow nutsedge (Cyperus esculentus), 70 g ai/ha, read-out: Visual Growth Reduction (%) 14 Days After Application, CYPES
# Summary of the method: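 Greenhouse post-emergent assay: seedlings (first/second true leaf) in Metro-Mix 360 were sprayed at 187 L/ha at a top rate plus twofold dilutions down to 1/16×; solvent-blank controls were included. Percent visual injury was read at 14 d.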
row,SMILES,pest or weed control at 70 g/ha [%]
1,C#Cc1ccc(-c2nc(N)c(OC)c(C(=O)OC)n2)c(F)c1 [Compound 59],0 to 29

# Same assay, conditions: post-emergence, 336 h, CYPES: yellow nutsedge (Cyperus esculentus), 140 g ai/ha, read-out: Visual Growth Reduction (%) 14 Days After Application, CYPES
row,SMILES,pest or weed control at 140 g/ha [%]
1,C#Cc1ccc(-c2nc(N)c(OC)c(C(=O)OC)n2)c(F)c1 [Compound 59],0 to 29

# Same assay, conditions: post-emergence, 336 h, DIGSA: crabgrass (Digitaria sanguinalis), 70 g ai/ha, read-out: Visual Growth Reduction (%) 14 Days After Application, DIGSA
row,SMILES,pest or weed control at 70 g/ha [%]
1,C#Cc1ccc(-c2nc(N)c(OC)c(C(=O)OC)n2)c(F)c1 [Compound 59],0 to 29

# Same assay, conditions: post-emergence, 336 h, DIGSA: crabgrass (Digitaria sanguinalis), 140 g ai/ha, read-out: Visual Growth Reduction (%) 14 Days After Application, DIGSA
row,SMILES,pest or weed control at 140 g/ha [%]
1,C#Cc1ccc(-c2nc(N)c(OC)c(C(=O)OC)n2)c(F)c1 [Compound 59],0 to 29

# Same assay, conditions: post-emergence, 336 h, ECHCG: barnyardgrass (Echinochloa crus-galli), 70 g ai/ha, read-out: Visual Growth Reduction (%) 14 Days After Application, ECHCG
row,SMILES,pest or weed control at 70 g/ha [%]
1,C#Cc1ccc(-c2nc(N)c(OC)c(C(=O)OC)n2)c(F)c1 [Compound 59],0 to 29

# Same assay, conditions: post-emergence, 336 h, ECHCG: barnyardgrass (Echinochloa crus-galli), 140 g ai/ha, read-out: Visual Growth Reduction (%) 14 Days After Application, ECHCG
row,SMILES,pest or weed control at 140 g/ha [%]
1,C#Cc1ccc(-c2nc(N)c(OC)c(C(=O)OC)n2)c(F)c1 [Compound 59],0 to 29

# Same assay, conditions: post-emergence, 336 h, ORYSA: rice (Oryza sativa), crop, 70 g ai/ha, read-out: Visual Growth Reduction (%) 14 Days After Application, ORYSA
row,SMILES,pest or weed control at 70 g/ha [%]
1,C#Cc1ccc(-c2nc(N)c(OC)c(C(=O)OC)n2)c(F)c1 [Compound 59],0 to 29

# Same assay, conditions: post-emergence, 336 h, ORYSA: rice (Oryza sativa), crop, 140 g ai/ha, read-out: Visual Growth Reduction (%) 14 Days After Application, ORYSA
row,SMILES,pest or weed control at 140 g/ha [%]
1,C#Cc1ccc(-c2nc(N)c(OC)c(C(=O)OC)n2)c(F)c1 [Compound 59],0 to 29

# Same assay, conditions: post-emergence, 336 h, SETFA: giant foxtail (Setaria faberi), 70 g ai/ha, read-out: Visual Growth Reduction (%) 14 Days After Application, SETFA
row,SMILES,pest or weed control at 70 g/ha [%]
1,C#Cc1ccc(-c2nc(N)c(OC)c(C(=O)OC)n2)c(F)c1 [Compound 59],0 to 29

# Same assay, conditions: post-emergence, 336 h, SETFA: giant foxtail (Setaria faberi), 140 g ai/ha, read-out: Visual Growth Reduction (%) 14 Days After Application, SETFA
row,SMILES,pest or weed control at 140 g/ha [%]
1,C#Cc1ccc(-c2nc(N)c(OC)c(C(=O)OC)n2)c(F)c1 [Compound 59],0 to 29

# Same assay, conditions: post-emergence, 336 h, SORVU: grain sorghum (Sorghum vulgare), 70 g ai/ha, read-out: Visual Growth Reduction (%) 14 Days After Application, SORVU
row,SMILES,pest or weed control at 70 g/ha [%]
1,C#Cc1ccc(-c2nc(N)c(OC)c(C(=O)OC)n2)c(F)c1 [Compound 59],0 to 29

# Same assay, conditions: post-emergence, 336 h, SORVU: grain sorghum (Sorghum vulgare), 140 g ai/ha, read-out: Visual Growth Reduction (%) 14 Days After Application, SORVU
row,SMILES,pest or weed control at 140 g/ha [%]
1,C#Cc1ccc(-c2nc(N)c(OC)c(C(=O)OC)n2)c(F)c1 [Compound 59],0 to 29

# Same assay, conditions: post-emergence, 336 h, TRZSS (wheat, Triticum aestivum), crop, 70 g ai/ha, read-out: Visual Growth Reduction (%) 14 Days After Application, TRZSS
row,SMILES,pest or weed control at 70 g/ha [%]
1,C#Cc1ccc(-c2nc(N)c(OC)c(C(=O)OC)n2)c(F)c1 [Compound 59],0 to 29

# Same assay, conditions: post-emergence, 336 h, TRZSS (wheat, Triticum aestivum), crop, 140 g ai/ha, read-out: Visual Growth Reduction (%) 14 Days After Application, TRZSS
row,SMILES,pest or weed control at 140 g/ha [%]
1,C#Cc1ccc(-c2nc(N)c(OC)c(C(=O)OC)n2)c(F)c1 [Compound 59],0 to 29

# Same assay, conditions: post-emergence, 336 h, ZEAMX: maize, corn (Zea mays), crop, 70 g ai/ha, read-out: Visual Growth Reduction (%) 14 Days After Application, ZEAMX
row,SMILES,pest or weed control at 70 g/ha [%]
1,C#Cc1ccc(-c2nc(N)c(OC)c(C(=O)OC)n2)c(F)c1 [Compound 59],0 to 29

# Source: patent US9113629B2, “4-amino-6-(4-substituted-phenyl)-picolinates and 6-amino-2-(4-substituted-phenyl)-pyrimidine-4-carboxylates and their use as herbicides” (DOW AGROSCIENCES LLC, priority 2013, dated 2015)
